# According to patent US20250163104A1, “MACROCYCLIC IMMUNOMODULATORS” (priority 2021, published 2025):
# Where a SMILES comes first, the peptide text is derived from it. Bridges are numbered along the chain shown (N, C = ends). [ ]: non-standard residue; d: D form. The star is where a group is joined. Phe(4-COOH) = N[C@@H](Cc1ccc(C(=O)O)cc1)C(=O)O; Bip = N[C@@H](Cc1ccc(-c2ccccc2)cc1)C(=O)O; Phe(3-Me) = Cc1cccc(C[C@H](N)C(=O)O)c1; 4Pal = N[C@@H](Cc1ccncc1)C(=O)O; Cit = NC(=O)NCCC[C@H](N)C(=O)O; Carboxymethyl = O=C(O)C*; Nle = CCCC[C@H](N)C(=O)O; Orn = NCCC[C@H](N)C(=O)O; Dab = NCC[C@H](N)C(=O)O
# Target: T1, human PD-1 / PD-L1-Ig binding on Jurkat cell line over-expressing human PD-1 (Jurkat-PD-1) (Homo sapiens, UniProt Q15116)
# T1 construct: expressed in transfected cells; host or cells: Jurkat
# T1 sequence (Q15116 25-288): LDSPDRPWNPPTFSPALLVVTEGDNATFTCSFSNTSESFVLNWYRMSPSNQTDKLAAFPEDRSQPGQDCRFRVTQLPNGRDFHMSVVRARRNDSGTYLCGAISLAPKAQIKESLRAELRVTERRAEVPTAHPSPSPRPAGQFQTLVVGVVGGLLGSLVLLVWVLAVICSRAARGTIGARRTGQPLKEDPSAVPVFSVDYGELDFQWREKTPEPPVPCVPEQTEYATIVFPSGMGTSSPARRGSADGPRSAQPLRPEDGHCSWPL
# Assay: Jurkat-PD-1 Cell Binding High-Content Screening Assay (CBA)
# Assay type: cell-based
# Conditions: Jurkat-PD-1 cells, PE-labeled PD-L1-Ig 20 nM final; read-out: Jurkat HPD1_PDL1 IC50
# Outline: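 Binding of fluorescent PD-L1-Ig (phycoerythrin linked via the Ig tag, 20 nM final) to PD-1-overexpressing Jurkat cells was imaged after a 2 h, 37° C compound pretreatment and 1 hour ligand incubation.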
row,IC50,Structure (SMILES)
1,7.1 nM,CC[C@H](C)[C@@H]1NC(=O)[C@H](Cc2ccc(-c3ccccc3)cc2)NC(=O)[C@H](C(C)C)NC(=O)[C@H](Cc2cccc(C)c2)NC(=O)[C@H](CC(=O)O)NC(=O)[C@H](Cc2ccc(C(=O)O)cc2)NC(=O)[C@H](Cc2ccncc2)NC(=O)CSC[C@@H](C(=O)N[C@@H](C)C(N)=O)NC(=O)[C@H]([C@@H](C)O)NC(=O)[C@H](C(C)C)NC(=O)[C@H](CC2CCCCC2)NC(=O)[C@H](CCN)NC(=O)[C@@H](CC(C)C)NC(=O)[C@H](CCCN)NC1=O [Compound 1192]
2,7.7 nM,CCCC[C@@H]1NC(=O)[C@H](CCN)NC(=O)[C@@H](CC(C)C)NC(=O)[C@H](CCCN)NC(=O)[C@H](C(C)C)NC(=O)[C@H](Cc2ccc(-c3ccccc3)cc2)NC(=O)[C@H](C(C)C)NC(=O)[C@H](Cc2cccc(C)c2)NC(=O)[C@H](CC(=O)O)NC(=O)[C@H](Cc2ccc(C(=O)O)cc2)NC(=O)[C@H](Cc2ccncc2)NC(=O)CSC[C@@H](C(=O)N[C@@H](C)C(N)=O)NC(=O)[C@H]([C@@H](C)O)NC(=O)[C@H](C(C)C)NC1=O [Compound 1193] ({CH2CO}-[4Pal][Phe(4-COOH)]D[Phe(3-Me)]V[Bip]V[Orn][dL][Dab][Nle]VTCA-NH2; thioether N-14)
3,4.7 nM,Cc1cccc(C[C@@H]2NC(=O)[C@H](CC(=O)O)NC(=O)[C@H](Cc3ccc(C(=O)O)cc3)NC(=O)[C@H](Cc3ccncc3)NC(=O)CSC[C@@H](C(=O)N[C@@H](C)C(N)=O)NC(=O)[C@H]([C@@H](C)O)NC(=O)[C@H](C(C)C)NC(=O)[C@H](CC3CCCCC3)NC(=O)[C@H](CCN)NC(=O)[C@@H](CC(C)C)NC(=O)[C@H](CCCN)NC(=O)[C@H](C(C)C)NC(=O)[C@H](Cc3ccc(-c4ccccc4)cc3)NC(=O)[C@H](C(C)C)NC2=O)c1 [Compound 1194]
4,13.8 nM,CCCC[C@@H]1NC(=O)[C@H](CCN)NC(=O)[C@@H](CC(C)C)NC(=O)[C@H](CCCN)NC(=O)[C@H](CCCNC(N)=O)NC(=O)[C@H](Cc2ccc(-c3ccccc3)cc2)NC(=O)[C@H](C(C)C)NC(=O)[C@H](Cc2cccc(C)c2)NC(=O)[C@H](CC(=O)O)NC(=O)[C@H](Cc2ccc(OCC(=O)O)cc2)NC(=O)[C@H](Cc2ccncc2)NC(=O)CSC[C@@H](C(=O)N[C@@H](C)C(N)=O)NC(=O)[C@H]([C@@H](C)O)NC(=O)[C@H](C(C)C)NC1=O [Compound 1195] ({CH2CO}-[4Pal]Y(Carboxymethyl)D[Phe(3-Me)]V[Bip][Cit][Orn][dL][Dab][Nle]VTCA-NH2; thioether N-14)
5,8.2 nM,Cc1cccc(C[C@@H]2NC(=O)[C@H](CC(=O)O)NC(=O)[C@H](Cc3ccc(OCC(=O)O)cc3)NC(=O)[C@H](Cc3ccncc3)NC(=O)CSC[C@@H](C(=O)N[C@@H](C)C(N)=O)NC(=O)[C@H]([C@@H](C)O)NC(=O)[C@H](C(C)C)NC(=O)[C@H](CC3CCCCC3)NC(=O)[C@H](CCN)NC(=O)[C@@H](CC(C)C)NC(=O)[C@H](CCCN)NC(=O)[C@H](CCCNC(N)=O)NC(=O)[C@H](Cc3ccc(-c4ccccc4)cc3)NC(=O)[C@H](C(C)C)NC2=O)c1 [Compound 1196]
6,12 nM,CCCC[C@@H]1NC(=O)[C@H](CCN)NC(=O)[C@@H](CC(C)C)NC(=O)[C@H](CCCN)NC(=O)[C@H]([C@@H](C)CC)NC(=O)[C@H](Cc2ccc(-c3ccccc3)cc2)NC(=O)[C@H](C(C)C)NC(=O)[C@H](Cc2cccc(C)c2)NC(=O)[C@H](CC(=O)O)NC(=O)[C@H](Cc2ccc(OCC(=O)O)cc2)NC(=O)[C@H](Cc2ccncc2)NC(=O)CSC[C@@H](C(=O)N[C@@H](C)C(N)=O)NC(=O)[C@H]([C@@H](C)O)NC(=O)[C@H](C(C)C)NC1=O [Compound 1197]
7,15.6 nM,CC[C@H](C)[C@@H]1NC(=O)[C@H](Cc2ccc(-c3ccccc3)cc2)NC(=O)[C@H](C(C)C)NC(=O)[C@H](Cc2cccc(C)c2)NC(=O)[C@H](CC(=O)O)NC(=O)[C@H](Cc2ccc(OCC(=O)O)cc2)NC(=O)[C@H](Cc2ccncc2)NC(=O)CSC[C@@H](C(=O)N[C@@H](C)C(N)=O)NC(=O)[C@H]([C@@H](C)O)NC(=O)[C@H](C(C)C)NC(=O)[C@H](CC2CCCCC2)NC(=O)[C@H](CCN)NC(=O)[C@@H](CC(C)C)NC(=O)[C@H](CCCN)NC1=O [Compound 1198]
